SMILES strings stand for the structures. Activity calls are given as the source filed them. A value given as a limit tells only on which side of the number the result lay.

The target in test [1] is T1, Zinc finger protein mex-5 (Caenorhabditis elegans, UniProt Q9XUB2).
T1 sequence (Q9XUB2 whole entry): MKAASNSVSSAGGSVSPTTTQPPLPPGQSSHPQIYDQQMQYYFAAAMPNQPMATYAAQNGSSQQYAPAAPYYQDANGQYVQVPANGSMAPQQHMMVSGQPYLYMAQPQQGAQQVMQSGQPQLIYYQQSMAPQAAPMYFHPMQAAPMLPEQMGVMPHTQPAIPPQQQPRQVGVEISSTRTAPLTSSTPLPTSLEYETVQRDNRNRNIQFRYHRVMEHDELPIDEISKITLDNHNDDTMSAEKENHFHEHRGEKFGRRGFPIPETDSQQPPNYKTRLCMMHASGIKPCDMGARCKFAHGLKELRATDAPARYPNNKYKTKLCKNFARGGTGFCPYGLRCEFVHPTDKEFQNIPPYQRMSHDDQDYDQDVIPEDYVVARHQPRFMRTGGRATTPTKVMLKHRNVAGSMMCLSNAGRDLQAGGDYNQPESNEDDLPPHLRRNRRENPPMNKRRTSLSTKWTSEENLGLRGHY
The test can be described thus: potency of MEX-5 RNA-binding blockers – biochemical, C. elegans, fluorescence polarization, dose response (AID 1960). For orientation: Fluorescence polarisation rises when a labelled molecule tumbles more slowly, as on binding a larger partner.

Test [2] concerns the target T2, Endoribonuclease toxin MazF (Escherichia coli K-12, UniProt P0AE70). The experiment in a line: substrate-only fluorescence increase artefacts – biochemical, single-stranded RNase substrate, counter-screen for MazEF activator project, dose response (AID 588502). It is filed as functional. In general terms: A counterscreen serves to expose hits that act by an unwanted route or on another target.

Test [3] has as its target T2, Endoribonuclease toxin MazF. The experiment in a line: activation of MazEF endoribonuclease cleavage – biochemical, fluorescence, single-stranded RNA substrate, uHTS hits, dose response (AID 588481). Format: functional.
In test [4] the target is Voltage-dependent T-type calcium channel subunit alpha-1H (Homo sapiens, UniProt O95180). Format: functional.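 Further: channel activity triggered by adding a high calcium stimulation buffer.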
Voltage-dependent T-type calcium channel subunit alpha-1H, sequence (O95180 whole entry): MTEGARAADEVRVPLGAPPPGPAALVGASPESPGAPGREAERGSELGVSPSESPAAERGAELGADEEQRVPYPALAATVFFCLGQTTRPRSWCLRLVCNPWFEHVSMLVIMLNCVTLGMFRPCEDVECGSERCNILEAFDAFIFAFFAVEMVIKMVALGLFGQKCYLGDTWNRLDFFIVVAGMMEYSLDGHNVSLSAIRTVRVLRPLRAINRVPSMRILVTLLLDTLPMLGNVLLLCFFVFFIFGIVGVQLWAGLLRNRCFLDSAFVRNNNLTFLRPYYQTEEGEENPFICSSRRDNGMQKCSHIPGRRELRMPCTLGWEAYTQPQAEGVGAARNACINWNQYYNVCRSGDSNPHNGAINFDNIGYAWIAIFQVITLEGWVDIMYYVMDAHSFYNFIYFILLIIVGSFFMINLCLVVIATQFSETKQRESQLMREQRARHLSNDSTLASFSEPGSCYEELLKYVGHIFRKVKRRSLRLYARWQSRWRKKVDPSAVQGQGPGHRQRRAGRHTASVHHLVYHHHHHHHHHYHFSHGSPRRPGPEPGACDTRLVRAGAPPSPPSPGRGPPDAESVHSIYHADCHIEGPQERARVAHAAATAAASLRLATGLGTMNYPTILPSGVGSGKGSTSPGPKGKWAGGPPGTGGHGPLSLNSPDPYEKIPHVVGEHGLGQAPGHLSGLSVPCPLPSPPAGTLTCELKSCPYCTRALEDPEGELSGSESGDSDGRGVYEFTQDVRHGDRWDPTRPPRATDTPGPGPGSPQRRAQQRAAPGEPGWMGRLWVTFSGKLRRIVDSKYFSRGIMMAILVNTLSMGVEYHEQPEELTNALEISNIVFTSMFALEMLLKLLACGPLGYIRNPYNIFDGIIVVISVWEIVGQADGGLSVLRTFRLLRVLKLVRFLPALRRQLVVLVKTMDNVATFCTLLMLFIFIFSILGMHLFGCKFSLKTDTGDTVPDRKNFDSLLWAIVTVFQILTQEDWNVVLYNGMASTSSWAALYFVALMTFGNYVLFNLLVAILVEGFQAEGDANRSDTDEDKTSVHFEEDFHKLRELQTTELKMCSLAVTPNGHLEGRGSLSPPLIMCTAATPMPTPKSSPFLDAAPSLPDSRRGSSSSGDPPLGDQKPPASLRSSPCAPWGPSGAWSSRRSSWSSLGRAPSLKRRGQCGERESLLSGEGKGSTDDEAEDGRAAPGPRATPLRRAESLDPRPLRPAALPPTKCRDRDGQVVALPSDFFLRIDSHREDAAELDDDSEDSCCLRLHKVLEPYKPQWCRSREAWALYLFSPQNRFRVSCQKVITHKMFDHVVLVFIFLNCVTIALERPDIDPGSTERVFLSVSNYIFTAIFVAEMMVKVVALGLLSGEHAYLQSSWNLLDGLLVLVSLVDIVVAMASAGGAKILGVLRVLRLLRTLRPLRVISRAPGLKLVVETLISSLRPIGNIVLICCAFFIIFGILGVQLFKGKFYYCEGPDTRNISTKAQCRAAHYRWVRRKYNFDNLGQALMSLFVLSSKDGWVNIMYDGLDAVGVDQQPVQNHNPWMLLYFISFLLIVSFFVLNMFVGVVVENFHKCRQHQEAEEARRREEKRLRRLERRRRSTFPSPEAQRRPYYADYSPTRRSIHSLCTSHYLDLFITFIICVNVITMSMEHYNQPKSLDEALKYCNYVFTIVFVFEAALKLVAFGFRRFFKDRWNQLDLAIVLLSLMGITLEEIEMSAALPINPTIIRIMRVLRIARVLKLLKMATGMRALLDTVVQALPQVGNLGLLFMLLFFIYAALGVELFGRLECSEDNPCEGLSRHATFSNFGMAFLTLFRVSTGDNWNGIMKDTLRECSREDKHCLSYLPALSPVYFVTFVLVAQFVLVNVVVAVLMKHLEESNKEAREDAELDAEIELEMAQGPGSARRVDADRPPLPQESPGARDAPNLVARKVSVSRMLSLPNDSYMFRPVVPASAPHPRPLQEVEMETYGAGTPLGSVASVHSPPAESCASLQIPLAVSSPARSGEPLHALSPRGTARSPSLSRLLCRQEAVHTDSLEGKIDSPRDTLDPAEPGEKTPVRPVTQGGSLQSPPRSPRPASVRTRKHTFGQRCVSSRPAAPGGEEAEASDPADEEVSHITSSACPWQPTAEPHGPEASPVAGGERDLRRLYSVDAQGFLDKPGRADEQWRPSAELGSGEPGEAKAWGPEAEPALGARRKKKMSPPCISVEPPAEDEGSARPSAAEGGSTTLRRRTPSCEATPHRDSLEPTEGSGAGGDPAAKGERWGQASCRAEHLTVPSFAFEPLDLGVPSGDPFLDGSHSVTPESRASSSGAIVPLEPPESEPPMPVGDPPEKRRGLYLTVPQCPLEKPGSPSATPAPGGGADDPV
In test [5] the target is T3, Corticotropin-releasing factor receptor 2/Corticotropin-releasing factor-binding protein (Homo sapiens, UniProt P24387+Q13324).
T3 sequence (Q13324 whole entry): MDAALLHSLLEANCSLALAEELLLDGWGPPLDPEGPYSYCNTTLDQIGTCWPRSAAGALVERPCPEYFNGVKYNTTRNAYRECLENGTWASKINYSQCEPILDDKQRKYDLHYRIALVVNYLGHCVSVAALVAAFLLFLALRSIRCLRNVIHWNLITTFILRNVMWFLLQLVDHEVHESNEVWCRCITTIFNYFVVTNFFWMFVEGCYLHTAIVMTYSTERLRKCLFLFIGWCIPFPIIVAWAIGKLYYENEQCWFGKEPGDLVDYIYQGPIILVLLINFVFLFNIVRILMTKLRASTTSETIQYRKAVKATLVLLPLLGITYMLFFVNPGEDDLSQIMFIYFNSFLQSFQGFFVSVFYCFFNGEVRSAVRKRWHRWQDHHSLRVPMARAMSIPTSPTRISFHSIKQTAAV
T3 sequence (P24387 whole entry): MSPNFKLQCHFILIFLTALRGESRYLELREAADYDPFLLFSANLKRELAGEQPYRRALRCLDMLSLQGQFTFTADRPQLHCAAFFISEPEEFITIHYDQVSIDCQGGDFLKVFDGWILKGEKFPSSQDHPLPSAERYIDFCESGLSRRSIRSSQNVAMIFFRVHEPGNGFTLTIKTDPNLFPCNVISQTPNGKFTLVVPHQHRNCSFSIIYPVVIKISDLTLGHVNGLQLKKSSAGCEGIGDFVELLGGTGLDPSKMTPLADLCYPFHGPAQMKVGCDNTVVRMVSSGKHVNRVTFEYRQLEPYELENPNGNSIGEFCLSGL
The experiment in a line: activators of CRF receptor 2 with binding protein – uHTS hits, confirmation (AID 602473). It is filed as functional. The following applies: read-out: EC50_Mean.

Test [6] deals with T4, RNA-binding protein pos-1 (Caenorhabditis elegans, UniProt G5EF15).
T4 sequence (G5EF15 whole entry): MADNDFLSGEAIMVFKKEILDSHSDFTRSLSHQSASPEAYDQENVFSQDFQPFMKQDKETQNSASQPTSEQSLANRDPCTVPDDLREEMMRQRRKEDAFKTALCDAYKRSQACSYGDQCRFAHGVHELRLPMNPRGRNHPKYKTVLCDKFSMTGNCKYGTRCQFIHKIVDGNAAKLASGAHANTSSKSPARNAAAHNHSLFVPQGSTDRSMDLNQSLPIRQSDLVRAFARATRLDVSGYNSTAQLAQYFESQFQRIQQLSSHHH
The test can be described thus: disruptors of C. elegans POS-1 RNA interaction – biochemical, fluorescence polarization, dose response (AID 1964).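 Further: purified POS-1 fused to maltose binding protein made in E. coli; potency of compounds blocking POS-1 binding to fluorescent RNA.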

Another test addresses Ephrin type-A receptor 4 (Mus musculus, UniProt Q03137). The test can be described thus: EphA4 ligand-binding antagonists – biochemical, colorimetric, mouse EphA4, primary screen (AID 689). It is filed as functional.
A further test has as its system HeLa. The test can be described thus: toxicity to human HeLa cells – cell-based, 48 h, plate reader, cherry-picks, cytotoxicity control, dose response (AID 504942). Format: functional.
Test [7] concerns the target T5, Acyl-homoserine lactone acylase PvdQ (Pseudomonas aeruginosa (strain LESB58), UniProt Q9I194).
T5 sequence (Q9I194 whole entry): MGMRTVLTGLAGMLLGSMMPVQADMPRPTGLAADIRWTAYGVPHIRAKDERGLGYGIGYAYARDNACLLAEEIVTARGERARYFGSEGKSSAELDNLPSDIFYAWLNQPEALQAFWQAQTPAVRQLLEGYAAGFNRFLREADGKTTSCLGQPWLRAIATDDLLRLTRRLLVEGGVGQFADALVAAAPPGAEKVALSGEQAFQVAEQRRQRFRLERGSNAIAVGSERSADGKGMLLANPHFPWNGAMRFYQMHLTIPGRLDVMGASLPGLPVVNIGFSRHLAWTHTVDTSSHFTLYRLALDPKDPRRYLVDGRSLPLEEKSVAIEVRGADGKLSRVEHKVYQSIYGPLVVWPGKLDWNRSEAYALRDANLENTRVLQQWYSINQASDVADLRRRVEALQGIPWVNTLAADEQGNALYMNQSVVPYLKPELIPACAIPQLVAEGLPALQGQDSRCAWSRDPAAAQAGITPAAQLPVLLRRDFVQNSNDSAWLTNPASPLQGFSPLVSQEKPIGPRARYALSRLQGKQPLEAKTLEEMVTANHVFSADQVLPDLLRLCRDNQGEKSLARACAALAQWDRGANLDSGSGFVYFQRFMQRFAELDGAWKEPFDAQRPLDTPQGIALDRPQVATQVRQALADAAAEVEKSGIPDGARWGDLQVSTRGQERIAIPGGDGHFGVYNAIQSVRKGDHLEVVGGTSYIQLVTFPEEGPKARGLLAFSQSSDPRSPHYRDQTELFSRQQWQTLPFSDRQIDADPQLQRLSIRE
The test can be described thus: PvdQ acylase enzyme activity blockers – biochemical, fluorescence, plate reader and imaging, cherry-picks, dose response (AID 493231).

T2 sequence (P0AE70 whole entry): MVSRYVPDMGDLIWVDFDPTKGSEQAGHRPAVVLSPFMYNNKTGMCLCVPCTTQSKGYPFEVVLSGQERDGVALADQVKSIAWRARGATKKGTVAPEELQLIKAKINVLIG
Ephrin type-A receptor 4, sequence (Q03137 whole entry): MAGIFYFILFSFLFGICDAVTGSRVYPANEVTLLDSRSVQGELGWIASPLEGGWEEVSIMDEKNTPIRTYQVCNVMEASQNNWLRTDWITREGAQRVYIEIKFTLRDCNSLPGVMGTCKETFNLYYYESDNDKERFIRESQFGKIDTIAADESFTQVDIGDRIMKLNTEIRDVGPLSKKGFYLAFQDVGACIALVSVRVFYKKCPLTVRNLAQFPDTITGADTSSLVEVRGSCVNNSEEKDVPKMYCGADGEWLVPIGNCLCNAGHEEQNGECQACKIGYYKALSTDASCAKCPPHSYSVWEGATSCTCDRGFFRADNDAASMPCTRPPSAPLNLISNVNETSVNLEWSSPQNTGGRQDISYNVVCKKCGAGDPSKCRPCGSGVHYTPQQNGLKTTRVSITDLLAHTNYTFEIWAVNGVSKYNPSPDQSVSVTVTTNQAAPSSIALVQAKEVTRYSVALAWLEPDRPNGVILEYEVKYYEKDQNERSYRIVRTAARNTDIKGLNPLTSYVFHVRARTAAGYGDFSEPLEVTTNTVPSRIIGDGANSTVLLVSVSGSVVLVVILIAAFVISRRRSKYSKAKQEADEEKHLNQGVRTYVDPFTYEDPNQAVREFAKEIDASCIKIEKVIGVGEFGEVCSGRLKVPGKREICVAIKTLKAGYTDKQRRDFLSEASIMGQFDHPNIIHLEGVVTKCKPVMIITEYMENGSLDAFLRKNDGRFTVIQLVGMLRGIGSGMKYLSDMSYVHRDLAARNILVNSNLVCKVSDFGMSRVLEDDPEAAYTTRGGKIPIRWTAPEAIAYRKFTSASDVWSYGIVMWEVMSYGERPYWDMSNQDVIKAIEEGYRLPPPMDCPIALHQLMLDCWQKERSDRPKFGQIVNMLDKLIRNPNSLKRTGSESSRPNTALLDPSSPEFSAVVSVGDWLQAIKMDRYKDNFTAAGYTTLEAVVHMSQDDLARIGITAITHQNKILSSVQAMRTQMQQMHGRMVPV

As a reminder, the IC50 is the concentration that inhibits the measured activity by half. Take `CC(C)(C)C(=O)c1sc2nc(-c3cccs3)cc(C(F)(F)F)c2c1N`: the EC50 was > 300 µM (inconclusive) in test [1]; > 99 µM (inactive) in test [2]; > 99 µM (inactive) in [3]; 2.59 µM (active) in test [4]; 18 µM (active) in test [5]; > 300 µM (not active) in test [6]. Further, the IC50 at Ephrin type-A receptor 4 was 9.9 µM (active).

The AC50 is the concentration at which the activity in the assay is half-maximal. `Cn1cccc1C(=O)OCc1cc(-c2ccco2)on1`: the AC50 is > 380 µM (inactive) with HeLa and 11.1 µM (active) in [7].

(Values after ChEMBL document CHEMBL1201862, “PubChem BioAssay data set” (2004).)
